Source: patent publication EP3789378A1, “PIPERIDINES OR PIPERIDONES SUBSTITUTED WITH UREA AND HETEROARYL” (Grünenthal GmbH, priority 2019, dated 2021)

What follows are molecules tested against T1, h FPR2 (Homo sapiens, UniProt P25090) (assay: Agonistic activity in hFPR2-Aq-CHO cells (FLIPR Calcium 5 fluorescence assay)). Details: 11 point half log dilution, final assay concentration from 10µM.
T1 construct: expressed in transfected cells
T1 sequence (P25090 1-351): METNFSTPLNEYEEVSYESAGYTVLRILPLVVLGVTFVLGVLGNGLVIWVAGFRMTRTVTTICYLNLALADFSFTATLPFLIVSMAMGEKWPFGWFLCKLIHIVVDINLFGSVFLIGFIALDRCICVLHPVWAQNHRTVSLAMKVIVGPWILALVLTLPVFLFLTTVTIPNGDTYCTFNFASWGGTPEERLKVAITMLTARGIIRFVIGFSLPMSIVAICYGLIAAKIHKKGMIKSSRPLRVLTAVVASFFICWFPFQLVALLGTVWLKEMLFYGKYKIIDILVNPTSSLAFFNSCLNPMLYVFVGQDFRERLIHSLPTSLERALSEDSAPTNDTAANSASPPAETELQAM
Format: cell-based
Outline: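 hFPR2-Aq-CHO cells were loaded with Calcium 5 dye for 30 min at 37 °C and equilibrated 10 min at room temperature. Compound (11 points, 10 µM to 100 pM final) was added in HBSS/HEPES/probenecid buffer pH 7.4. Fluorescence rise over basal across 5 min, relative to no-compound wells, gave EC50.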

Row | SMILES | EC50 [nM]
1 | COc1ccc([C@@H]2CN(C3(C#N)CC3)CC[C@H]2NC(=O)Nc2ccc(Cl)cc2)nc1 (relative stereo) [Ex-180, trans-1-(4-Chlorophenyl)-3-[1-(1-cyano-cyclopropyl)-3-(5-methoxy-pyridin-2-yl)-piperidin-4-yl]-urea] | 0.5
2 | COc1ccc([C@@H]2CN(C3(C(N)=O)CC3)CC[C@H]2NC(=O)Nc2ccc(Cl)cc2)nc1 (relative stereo) [Ex-181, trans-1-[4-[[(4-Chlorophenyl)-carbamoyl]amino]-3-(5-methoxy-pyridin-2-yl)-piperidin-1-yl]-cyclopropane-1-carboxylic acid amide] | 0.9
3 | COc1ccc([C@@H]2CN(CC3(O)CC3)CC[C@H]2NC(=O)Nc2cc(C)ns2)nc1 (relative stereo) [Ex-182, trans-1-[1'-(1-hydroxy-cyclopropylmethyl)-5-methoxy-1',2',3',4',5',6'-hexahydro-[2,3']bipyridinyl-4'-yl]-3-(3-methyl-isothiazol-5-yl)-urea] | 2
4 | CS(=O)(=O)n1ccc(CN2CC[C@@H](NC(=O)Nc3ccccc3)[C@H](c3ccc(Cl)cn3)C2)n1 (relative stereo) [Ex-184, trans-1-[5-chloro-1'-(1-methanesulfonyl-1H-pyrazol-3-ylmethyl)-1',2',3',4',5',6'-hexahydro-[2,3']bipyridinyl-4'-yl]-3-phenyl-urea] | 1.4
5 | O=C(Nc1ccccc1)N[C@@H]1CCN(CC2CNC2)C[C@H]1c1ccc(Cl)cn1 (relative stereo) [Ex-186, trans-1-(1'-azetidin-3-ylmethyl-5-chloro-1',2',3',4',5',6'-hexahydro-[2,3']bipyridinyl-4'-yl)-3-phenyl-urea] | 27
6 | COCCCN1CC[C@@H](NC(=O)Nc2ccc(Cl)cc2)[C@H](c2ncc(OC)cc2F)C1 (relative stereo) [Ex-193, trans-1-(4-chlorophenyl)-3-[3-fluoro-5-methoxy-1'-(3-methoxy-propyl)-1',2',3',4',5',6'-hexahydro-[2,3']bipyridinyl-4'-yl]-urea] | 1
7 | COc1ccc([C@@H]2CN(CC3(O)COC3)CC[C@H]2NC(=O)Nc2ccc(Cl)cc2)nc1 (relative stereo) [Ex-194, trans-1-(4-chloro-phenyl)-3-[1'-(3-hydroxy-oxetan-3-ylmethyl)-5-methoxy-1',2',3',4',5',6'-hexahydro-[2,3']bipyridinyl-4'-yl]-urea] | 1.3
8 | COc1cnc([C@@H]2CN(CCS(C)(=O)=O)CC[C@H]2NC(=O)Nc2ccc(Cl)cc2)c(F)c1 (relative stereo) [Ex-196, trans-1-(4-chloro-phenyl)-3-[3-fluoro-1'-(2-methanesulfonyl-ethyl)-5-methoxy-1',2',3',4',5',6'-hexahydro-[2,3']bipyridinyl-4'-yl]-urea] | 0.7
9 | COc1cnc([C@@H]2CN(CCCO)CC[C@H]2NC(=O)Nc2ccc(Cl)cc2)c(F)c1 (relative stereo) [Ex-197, trans-1-(4-chloro-phenyl)-3-[3-fluoro-1'-(3-hydroxy-propyl)-5-methoxy-1',2',3',4',5',6'-hexahydro-[2,3']bipyridinyl-4'-yl]-urea] | 0.9
10 | COCCN1CC[C@@H](NC(=O)Nc2ccc(Cl)cc2)[C@H](c2ncc(OC)cc2F)C1 (relative stereo) [Ex-198, trans-1-(4-chloro-phenyl)-3-[3-fluoro-5-methoxy-1'-(2-methoxy-ethyl)-1',2',3',4',5',6'-hexahydro-[2,3']bipyridinyl-4'-yl]-urea] | 0.4
11 | COc1cnc([C@@H]2CN(CCO)CC[C@H]2NC(=O)Nc2ccc(Cl)cc2)c(F)c1 (relative stereo) [Ex-199, trans-1-(4-chloro-phenyl)-3-[3-fluoro-1'-(2-hydroxy-ethyl)-5-methoxy-1',2',3',4',5',6'-hexahydro-[2,3']bipyridinyl-4'-yl]-urea] | 0.5
12 | COc1cnc([C@@H]2CN(CC3COC3)CC[C@H]2NC(=O)Nc2ccc(Cl)cc2)c(F)c1 (relative stereo) [Ex-200, trans-1-(4-chloro-phenyl)-3-(3-fluoro-5-methoxy-1'-oxetan-3-ylmethyl-1',2',3',4',5',6'-hexahydro-[2,3']bipyridinyl-4'-yl)-urea] | 0.4
13 | COc1ccc([C@@H]2CN(CC3(OC)CC3)CC[C@H]2NC(=O)Nc2ccc(Cl)cc2)nc1 (relative stereo) [Ex-201, trans-1-(4-chloro-phenyl)-3-[5-methoxy-1'-(1-methoxy-cyclopropylmethyl)-1',2',3',4',5',6'-hexahydro-[2,3']bipyridinyl-4'-yl]-urea] | 0.6
14 | COc1ccc([C@@H]2CN(CC3COC3)CC[C@H]2NC(=O)Nc2cc(C)ns2)nc1 (relative stereo) [Ex-204, trans-1-(5-methoxy-1'-oxetan-3-ylmethyl-1',2',3',4',5',6'-hexahydro-[2,3']bipyridinyl-4'-yl)-3-(3-methyl-isothiazol-5-yl)-urea] | 4
15 | COc1ccc([C@@H]2CN(CC3CC(C)(O)C3)CC[C@H]2NC(=O)Nc2ccc(Cl)cc2)nc1 (relative stereo) [Ex-207, trans-1-(4-chloro-phenyl)-3-[1'-(3-hydroxy-3-methyl-cyclobutylmethyl)-5-methoxy-1',2',3',4',5',6'-hexahydro-[2,3']bipyridinyl-4'-yl]-urea] | 9
16 | COc1cnc([C@@H]2CN(CC(C)(C)O)CC[C@H]2NC(=O)Nc2ccc(Cl)cc2)c(F)c1 (relative stereo) [Ex-208, trans-1-(4-chloro-phenyl)-3-[3-fluoro-1'-(2-hydroxy-2-methyl-propyl)-5-methoxy-1',2',3',4',5',6'-hexahydro-[2,3']bipyridinyl-4'-yl]-urea] | 0.7
17 | COc1cnc([C@@H]2CN(CC3CC3)CC[C@H]2NC(=O)Nc2ccc(Cl)cc2)c(F)c1 (relative stereo) [Ex-209, trans-1-(4-chloro-phenyl)-3-(1'-cyclopropylmethyl-3-fluoro-5-methoxy-1',2',3',4',5',6'-hexahydro-[2,3']bipyridinyl-4'-yl)-urea] | 0.3
18 | COc1ccc([C@@H]2CN(c3ccnc(C)n3)CC[C@H]2NC(=O)Nc2ccc(Cl)cc2)nc1 (relative stereo) [Ex-210, trans-1-(4-chloro-phenyl)-3-[5-methoxy-1'-(2-methyl-pyrimidin-4-yl)-1',2',3',4',5',6'-hexahydro-[2,3']bipyridinyl-4'-yl]-urea] | 5
19 | COc1ccc([C@@H]2CN(c3ccnc(C)n3)CC[C@H]2NC(=O)Nc2cc(C)ns2)nc1 (relative stereo) [Ex-211, trans-1-[5-methoxy-1'-(2-methyl-pyrimidin-4-yl)-1',2',3',4',5',6'-hexahydro-[2,3']bipyridinyl-4'-yl]-3-(3-methyl-isothiazol-5-yl)-urea] | 7

Same assay, conditions: agonistic response at 0.1µM

Row | SMILES | activation at 0.1 µM [%]
20 | O=C(Nc1ccccc1)N[C@@H]1CCN(C2CNC2)C[C@H]1c1ccc(Cl)cn1 (relative stereo) [Ex-185, trans-1-(1'-azetidin-3-yl-5-chloro-1',2',3',4',5',6'-hexahydro-[2,3']bipyridinyl-4'-yl)-3-phenyl-urea] | 19
21 | COc1ccc([C@@H]2CN(C(=O)CN(C)C)CC[C@H]2NC(=O)Nc2ccc(Cl)cc2)nc1 (relative stereo) [Ex-190, trans-1-(4-chlorophenyl)-3-[1-[2-(dimethylamino)acetyl]-3-(5-methoxypyridin-2-yl)piperidin-4-yl]urea] | 8
